Data on five compounds can be found in patent US10086034B2, “Compositions and methods for inducing urinary voiding and defecation” (Dignify Therapeutics, LLC, priority 2013, dated 2018).

Entries after “also recorded” stand apart in the source; their conditions may differ. Where no end group is shown, it is not given here. [ ]: non-standard residue; d: D form. βAla = NCCC(=O)O

The subject of data set [1] is bladder of anesthetized acutely spinalized female rats. Briefly: Bladder contractility: isovolumetric bladder pressure recording in anesthetized acutely spinalized rats. It is filed as in vivo, Sprague Dawley rats. Conditions: for bladder pressure (peak pressure response): increasing i.v. doses, acutely spinalized anesthetized female rats; for effect of antagonist pre-administration on DTI-100 induced increase in bladder pressure: antagonist 1 mg/kg, DTI-100 10 μg/kg i.v., paired t-test, N=4. How it is done:
(§1) General: In vivo studies were performed in anesthetized, acutely spinalized (T9-10 level) rats (N=37) or spinally intact (N=3) rats. Adult female Sprague Dawley rats (Charles River, N.C.; 250-300 g) were housed at an AAALAC approved facility in cages (3/cage) with free access to water and food in a colony room that was maintained on a 12 hr/12 hr light/dark cycle 1-2 weeks before the experiment. Rats were anesthetized with urethane (1.2-1.4 g/kg subcutaneous injection). Surgical procedures were then performed with the addition of isoflurane anesthesia (0.05-1.5% in O2) as the full anesthetic effect of urethane takes about 1-2 hrs.
A catheter filled with heparinized saline (50 unit/ml) was inserted into the carotid artery and connected to a pressure transducer for measurement of blood pressure and heart rate. A catheter was inserted into the jugular vein for intravenous (i.v.) administration of drugs. In order to transect the spinal cord, the skin and muscle on the dorsal side at the level of the lower thoracic vertebrae were incised, and the spinal cord was carefully exposed by a laminectomy and transected at the T8-T10 spinal level. Gelfoam was placed at the incision site and the muscle and skin overlying the vertebrae were closed with wound clips. The spinal cord was cut at least 60 min before starting the experimental protocol.
Bladder Contractility: For isovolumetric recordings of bladder pressure a saline-filled polyethylene tubing with a flared tip (PE 50®) catheter was inserted into the bladder and secured in place at the dome. This catheter was used to slowly infuse saline (0.2-0.3 ml/min by an infusion pump (PHD2000 infusion, Harvard Apparatus, Holliston, Mass.) to determine the bladder capacity. The bladder capacity was determined as the volume necessary to fill the bladder to the leak point pressure (i.e. volume required to produce voiding). The bladder was then emptied, the external urethra occluded and the bladder filled to 70% capacity. This method produced a stable baseline pressure in which drug induced changes in bladder contractility could be measured. Peak pressure responses, time to peak, and time to return to near baseline values (within 5 mmHg of baseline; i.e. duration of action) after vehicle and drug administration were measured.
Dosing: Responses to saline i.v. were given to ensure stable baseline pressures and lack of response to saline (vehicle control for DTI-100) at the start of each protocol and periodical throughout the experiment. DTI-100 was given in dose range of 0.01-100 μg/kg. The NK1R antagonist, Spantide I (solubilized in saline) and NK2R antagonist GR159897 (solubilized at 50 mM in DMSO and then diluted in saline) were given at a 1 mg/kg dose. Neurokinin A (NKA) and (betaAla8)NKA(4-10) were given at doses 1-100 μg/kg. Additional routes of drug administration explored included, intramuscular, subcutaneous, and sublingual. [Lys5,MeLeu9,Nle10]-NKA(4-10) (SEQ ID NO: 1) or “DTI-100”, Spantide I, GR159897, Neurokinin A, and (BetaAla8)NKA(4-10) were obtained from TOCRIS R&D SYSTEMS, Inc. (Minneapolis, Minn.).
Data analysis: Data were examined qualitatively and quantitatively. The mean, standard deviation and standard error of the mean were calculated using MICROSOFT EXCEL. One way ANOVA tests were performed with PRISM 5 for WINDOWS (Graphpad Software, Inc., La Jolla, Calif.) and unpaired and paired t-tests were performed in EXCEL. P<0.05 was considered as statistically significant.

Data set [2] deals with colorectum of anesthetized acutely spinalized female rats. Briefly: Colorectal contractility: balloon catheter colorectal pressure in anesthetized rats. Type of data set: in vivo, Sprague Dawley rats. The settings on record: antagonist 1 mg/kg i.v.; DTI-100 10 μg/kg given 5 min later. The protocol:
as §1, with “hrs. […]” for “hrs.”
Colorectal Contractility: Colorectal pressures were measured via a latex balloon catheter (length 3-5 cm) inserted (˜4 cm) into the distal rectal/colon region. […] This allowed drug induced changes in colorectal pressure to be monitored. Parameters measured include peak colorectal pressure response, duration of time above baseline activity (in the 1st 5 min after drug administration), area under the curve (measured during the 1st 5 min after drug administration) and the number of contractile events after vehicle and drug administration. […]
Data analysis: Data were examined qualitatively and quantitatively. The mean, standard deviation and standard error of the mean were calculated using MICROSOFT EXCEL. […]

A further data set relates to Beagle dogs. Briefly: Adverse events after a high i.v. dose of NK2R agonist in beagle dogs. It is filed as in vivo. Conditions: 150 ug/kg intravenous, stated in Example 10 (present tense methods). The protocol:
General: Beagle dogs (6-11 kg, purpose-bred and experimentally naïve) are housed at an AAALAC approved facility in cages (1/cage) with access to water and food. A butterfly intravenous catheter is inserted into a vein (e.g. radial or saphenous). All animal activities are performed in compliance with USDA guidelines. Animals are monitored for 5 days prior to dosing to ensure adequate health.
Treatments and Dosing: Animals are administered a dose of an NK2R agonist that produces observed adverse events. […] Adverse events are commonly quantified by measuring the number of events and the duration of each event occurring during “1 minute time bins” after NK2R agonist administration to create a time histogram of events. When voiding has stopped, a NK2R antagonist is administered intravenously. Efficacy of the NK2R antagonist is obtained by measuring the reduction in the number and duration of adverse events.

Consider “Asp-Ser-Phe-Val-β-Ala-Leu-Met-NH2 (DSFV[βAla]LM-NH2) [(betaAla8)NKA(4-10), peptide agonist for NK2R]”, for which, in data set [1], the “bladder pressure (peak pressure response)” value is “produce increases in bladder pressure”.
Consider Spantide I, for which, in data set [1], the “effect of antagonist pre-administration on DTI-100 induced increase in bladder pressure” value was “did not reduce the effect of DTI-100 on bladder pressure; also recorded: the same before (Before) and after (After) administration”. For the same compound, the “effect of antagonist pre-administration on DTI-100 induced increase in colorectal activity” value in data set [2] was “did not reduce the effect of DTI-100 on colorectal activity”.
Regarding “His-Lys-Thr-Asp-Ser-Phe-Val-Gly-Leu-Met-NH2 (HKTDSFVGLM-NH2) [NKA, neuropeptide neurokininA, peptide agonist for NK2R]”, the “time to peak bladder pressure response” value in data set [1] (i.v., all doses studied) was at most 60 s. In data set [1], the “bladder pressure (peak pressure response)” value was “produce increases in bladder pressure”. In addition, in data set [1] (intramuscular, subcutaneous and sublingual injections, DTI-100 10-100 μg/kg, NKA 5-100 μg/kg), the bladder pressure result is “showed an increase in bladder pressure”.
`CCCC[C@H](NC(=O)[C@H](CC(C)C)N(C)C(=O)CNC(=O)[C@@H](NC(=O)[C@H](Cc1ccccc1)NC(=O)[C@H](CCCCN)NC(=O)[C@@H](N)CC(=O)O)C(C)C)C(N)=O` [DTI-100, [Lys5,MeLeu9,Nle10]-NKA(4-10)]: the “duration of adverse events” value with Beagle dogs is given as “approximately 15 minutes”. In addition, the adverse events observed result with Beagle dogs (within minutes after voiding and defecation) was “retching, emesis, panting, and vocalization”.
On to `COC1(C[S@@+]([O-])c2ccccc2)CCN(CCc2c[nH]c3ccc(F)cc23)CC1` [GR159897], for which the “effect of antagonist pre-administration on DTI-100 induced increase in bladder pressure” value in data set [1] is “significantly blocked the bladder pressure increase to DTI-100”. The “effect of antagonist pre-administration on DTI-100 induced increase in colorectal activity” value in data set [2] is recorded as “significantly blocked the bladder pressure increase produced by DTI-100”.
